# Measurements from patent publication US20150191459A1, “CATHEPSIN INHIBITORS” (ViroBay, Inc., priority 2013, published 2015).
# Target: Human cathepsin B (Homo sapiens, UniProt P07858)
# Assay: Cathepsin B Assay
# Format: biochemical
# Settings: apparent inhibition constant; Boc-Leu-Arg-Arg-AMC substrate; pH 6; 30 minutes pre-incubation; read-out: cat B Ki
# Description: Solutions of test compounds in varying concentrations were prepared in 10 μL of dimethyl sulfoxide (DMSO) and then diluted into assay buffer (40 μL, comprising: N,N-bis(2-hydroxyethyl)-2-aminoethanesulfonic acid (BES), 50 mM (pH 6); polyoxyethylenesorbitan monolaurate, 0.05%; and dithiothreitol (DTT), 2.5 mM). Human cathepsin B (0.025 pMoles in 25 μL of assay buffer) was added to the dilutions. The assay solutions were mixed for 5-10 seconds on a shaker plate, covered and incubated for 30 minutes at ambient temperature. Boc-Leu-Arg-Arg-AMC (20 μM in 1% DMSO) was added to the assay solutions and hydrolysis was followed spectrophotometrically at (λ 460 nm) for 5 minutes. Apparent inhibition constants (Ki) were calculated from the enzyme progress curves using standard mathematical models.
row,Structure (SMILES),Ki
1,"N#CC1(NC(=O)[C@H](Cc2cc(Cl)c(O)c(Cl)c2)N[C@@H](c2ccc(Br)cc2)C(F)(F)F)CC1 [N-(1-Cyanocyclopropyl)-2S-[2,2,2-trifluoro-1S-(4-bromophenyl)-ethylamino]-3-(3,5-dichloro-4-hydroxyphenyl)-propanamide]",45 nM
2,"N#CC1(NC(=O)[C@H](Cc2cc(I)c(O)c(I)c2)N[C@@H](c2ccc(Br)cc2)C(F)(F)F)CC1 [N-(1-Cyanocyclopropyl)-2S-[2,2,2-trifluoro-1S-(4-bromophenyl)-ethylamino]-3-(3,5-diiodo-4-hydroxyphenyl)-propanamide]",13 nM
3,"N#CC1(NC(=O)[C@H](Cc2cc(Cl)c(O)c(Cl)c2)N[C@@H](c2ccc(F)cc2)C(F)(F)F)CC1 [N-(1-Cyanocyclopropyl)-2S-[2,2,2-trifluoro-1S-(4-fluorophenyl)-ethylamino]-3-(3,5-dichloro-4-hydroxyphenyl)-propanamide]",130 nM

# Compounds with a lower Ki, results first:
row,Ki,Structure (SMILES)
1,3.5 nM,"N#CCNC(=O)[C@H](Cc1cc(I)c(O)c(I)c1)N[C@@H](c1ccc(Br)cc1)C(F)(F)F [N-Cyanomethyl-2S-[2,2,2-trifluoro-1S-(4-bromophenyl)-ethylamino]-3-(3,5-diiodo-4-hydroxyphenyl)-propanamide]"
2,≤ 1 nM,"CC[C@H](NC(=O)[C@H](Cc1cc(Cl)c(O)c(Cl)c1)N[C@@H](c1ccc(F)cc1)C(F)(F)F)C(=O)C(=O)NC1CC1 [N-Cyclopropyl-3S-{3-[3,5-dichloro-4-hydroxyphenyl)-2S-(2,2,2-trifluoro)-1S-(4-fluorophenyl)ethylamino]propionylamino}-2-oxopentanamide]"
3,1.53 nM,"CC[C@H](NC(=O)[C@H](Cc1cc(Cl)c(O)c(Cl)c1)N[C@@H](c1ccc(Br)cc1)C(F)(F)F)C(=O)C(=O)NC1CC1 [N-cyclopropyl-3S-{3-[3,5-dichloro-4-hydroxyphenyl)-2S-(2,2,2-trifluoro)-1S-(4-bromophenyl)ethylamino]propionylamino}-2-oxopentanamide]"
4,1.28 nM,"CC[C@H](NC(=O)[C@H](Cc1cc(I)c(O)c(I)c1)N[C@@H](c1ccc(Br)cc1)C(F)(F)F)C(=O)C(=O)NC1CC1 [N-cyclopropyl-3S-{3-[3,5-diiodo-4-hydroxyphenyl)-2S-(2,2,2-trifluoro)-1S-(4-bromophenyl)ethylamino]propionylamino}-2-oxopentanamide]"
5,1.16 nM,"CC[C@H](NC(=O)[C@H](Cc1cc(I)c(O)c(I)c1)N[C@@H](c1ccc(F)cc1)C(F)(F)F)C(=O)C(=O)NC1CC1 [N-cyclopropyl-3S-{3-[3,5-diiodo-4-hydroxyphenyl)-2S-(2,2,2-trifluoro)-1S-(4-fluorophenyl)ethylamino]propionylamino}-2-oxopentanamide]"
